Experimental data: patent US8809303B2, “Methods of regulating actin cytoskeletal rearrangement and intercellular gap formation” (The University of North Carolina at Chapel Hill, priority 2008, dated 2014)

Columns and labels:
Assay type in all cases: cell-based
[1] = system: human pulmonary microvascular endothelial cells (HMVECs); test: Simulated cold IRI: cold ischemia in 4° C. PERFADEX, gaps in monolayer; conditions: CRX-526 pre-incubation; 4 hours of cold ischemia in 4° C. PERFADEX; FIG. 2A, 2B
Method: FIG. 2A is a series of photographs of (from left to right) human pulmonary microvascular endothelial cells (HMVECs) in warm (37° C.) cell culture media (Control), of HMVECs after four hours of cold ischemia (CI) in 4° C. cell culture media (Media 4 hr CI), of HMVECs after four hours of cold ischemia in 4° C. PERFADEX™ (Vitrolife, Kungsbacka, Sweden) pulmonary preservation solution (Vehicle 4 hr CI), and of HMVECs that had been pre-incubated with CRX-526 and undergone four hours of cold ischemia in 4° C. PERFADEX™ (Vitrolife, Kungsbacka, Sweden) with CRX-526 (CRX-526 4 hr CI). The photographs are representative of 9 images taken for each set of conditions.
FIG. 2B is a graph of the % area of gaps in the monolayer of human pulmonary microvascular endothelial cells (HMVECs) in cell culture media (Media), vehicle (i.e., PERFADEX™ (Vitrolife, Kungsbacka, Sweden)) or in vehicle after a 1 hour pre-treatment with CRX-526 and following either four hours of cold ischemia (4 hr CI), 1 hour of warm ischemia (WI), or following 1 hour of warm ischemia and 15 min, 1 hr, or 4 hr of reperfusion (15 min rep, 1 hr rep, and 4 hr rep, respectively). Data for the HMVECs in cell culture media without vehicle is shown in the open bars. […] The % gap area was quantified by MetaMorph® software (MDS Analytical Technologies, Inc., Sunnyvale, Calif., United States of America). *=p<0.01. […]

[2] = system: human pulmonary microvascular endothelial cells (HMVECs); test: Cell culture model of warm lung IRI: simulated warm ischemia and reperfusion, phalloidin staining and image analysis; conditions: 1 μg/mL CRX-526 vs vehicle
Method: An in vitro normothermic (37° C.) model of IRI employing nutrient depletion in 100% oxygen to model ischemia was developed, with reperfusion modeled by supplying fresh medium to culture dishes in sealed PLEXIGLAS® containers. Human pulmonary microvascular endothelial cells (HMVECs) (Cambrex Bio Science, Walkersville, Md., United States of America) maintained in CLONETICS® EGM-2MV BULLETKITS® (Cambrex Bio Science, Walkersville, Md., United States of America), at 37° C. in a humidified incubator in 5% CO2 were seeded at 2000 cells/cm^2 on collagen-coated 30 mm diameter glass bottom dish coverslips (Mattek Corp., Ashland, Mass., United States of America) and grown until 100% confluent. Sealed PLEXIGLAS® containers housing culture dishes at 37° C. were ventilated with 95% O2/5% CO2. To model warm ischemia (WI), cell medium was suddenly replaced with 2 mL nutrient-depleted, pyrogen-free clinical grade Ringer's lactate. Dishes were pre-treated with 1 μg/mL CRX-526 (GlaxoSmithKline, Duluth, Minn., United States of America) or vehicle (2% glycerin), one hour before WI. CRX-526 or vehicle was added whenever medium was changed. After 1 hour of simulated WI, Ringer's lactate was replaced with EGM2-MV pyrogen-free medium to simulate reperfusion, ventilating the chamber with 5% CO2 in room air. Dishes were removed in triplicate during WI and reperfusion, and immediately fixed in 4% paraformaldehyde for phalloidin staining. Cells with inhibitor or vehicle maintained in EGM2-MV medium at 37° C. in humidified 5% CO2 incubator served as controls. Culture medium was changed at the same time that medium was changed in experimental dishes. Probes inserted through sealed ports continuously recorded temperature, and pH in a representative dish in the PLEXIGLAS® box using voltmeters with data output recorded by PicoRecorded software (Pico Technology, St. Neots, United Kingdom).
HMVECs were fixed in 4% paraformaldehyde for 10 minutes at room temperature and washed 3 times with PBS. Cells were incubated for 1 hour with a 1/100 dilution of ALEXAFLOR® 568 phalloidin (Invitrogen, Carlsbad, Calif., United States of America) in PBS with 1% BSA and 0.05% Tween-20. Coverslips stained for F-actin were immediately examined with a Leica DMIRB Inverted Fluorescence/DIC microscope (Leica Microsystems, Inc., Bannockburn, Ill., United States of America) at 20× and 40× magnification to evaluate changes in cell shape and F-actin cytoskeleton. For each dish, three pictures were taken of contiguous fields near the center of the dish at 40× with a Kodak (Rochester, N.Y., United States of America) digital camera at the same exposure time. A masked observer assessed actin stress fiber pattern of each cell as normal or abnormal. Quantitative analysis of gap area was performed using METAMORPH® software (MDS Analytical Technologies, Inc., Sunnyvale, Calif., United States of America).
As described in Example 1, HMVECs grown to confluence on P30 dishes with integral cover slips were incubated with 1 μg/mL CRX-526 or vehicle, ventilated with 95% O2/5% CO2. Media was replaced with warm (37° C.)
Ringer's lactate and ventilated with 100% O2 to simulate warm ischemia. One hour later, Ringer's lactate was replaced with warm cell culture media, and chambers were ventilated with 95% room air/5% CO2 to simulate reperfusion. […]

[3] = system: human pulmonary microvascular endothelial cells (HMVECs); test: Determination of viability for cell culture experiments (LDH activity, CytoTox96 assay) during simulated IRI; conditions: controls vs treated groups, all time points of simulated IRI
Method: In separate experiments performed in triplicate, HMVECs grown to confluence on P35 dishes underwent simulated IRI. At the same time points, cells and cell culture media or Ringer's lactate were assessed for lactate dehydrogenase (LDH) activity using the CytoTox96 Non-Radioactive Cytotoxicity Assay (Promega, Madison, Wis., United States of America) following the manufacturer's instructions. Control samples were also taken at time zero and 24 hours to assess cell viability apart from the experimental model. Culture medium and Ringer's lactate were used as background controls to normalize the absorbance value from the other samples. Cytotoxicity was calculated as media LDH activity divided by total LDH activity (cell pellet plus media). Viability was the inverse and expressed as percent viability at each time point.

CCCCCCCCCCC[C@H](CC(=O)N[C@H]1[C@H](OC[C@H](NC(=O)C[C@@H](CCCCCCCCCCC)OC(=O)CCCCC)C(=O)O)O[C@H](CO)[C@@H](OP(=O)(O)O)[C@@H]1OC(=O)C[C@@H](CCCCCCCCCCC)OC(=O)CCCCC)OC(=O)CCCCC [CRX-526]
gaps in monolayer [1]: much less obvious | peripheral orientation of actin ([2]; after 15 minutes simulated reperfusion, FIG. 1C): significantly reduced | recovery of monolayer confluence ([2]; after simulated reperfusion, FIG. 1B): regained confluence more quickly | area of monolayer gaps ([2]; during simulated warm ischemia, FIG. 1B): significantly reduced | peripheral orientation of actin ([2]; following 60 minutes of WI, FIG. 1C): significantly reduced | percentage of cells with altered actin cytoskeleton ([2]; monolayers in simulated warm IRI, FIG. 1C): decreased | cell viability, quantified by LDH assay [3]: equivalent
